Assays:
[1] = molecular target: ASK1 kinase active site (Homo sapiens (Human), UniProt Q99683); assay: ASK1 kinase active site binding assay (KINOMEscan); conditions: 11-point 3-fold dilution series
Description: ASK1 Kinase Active Site Binding Assay
Compound binding to the ASK1 kinase active site was determined using the KINOMEscan Assay platform (DiscoverX, San Diego, Calif.). Briefly, ASK1-tagged T7 phage strains were prepared in an E. coli host derived from the BL21 strain. E. coli were grown to log-phase and infected with T7 phage and incubated with shaking at 32° C. until lysis. The lysates were centrifuged and filtered to remove cell debris. The remaining kinases were produced in HEK-293 cells and subsequently tagged with DNA for qPCR detection. Streptavidin-coated magnetic beads were treated with biotinylated small molecule ligands for 30 minutes at room temperature to generate affinity resins for kinase assays. The liganded beads were blocked with excess biotin and washed with blocking buffer (SeaBlock (Pierce), 1% BSA, 0.05% Tween 20, 1 mM DTT) to remove unbound ligand and to reduce nonspecific binding. Binding reactions were assembled by combining kinases, liganded affinity beads, and test compounds in 1× binding buffer (20% SeaBlock, 0.17×PBS, 0.05% Tween 20, 6 mM DTT). Test compounds were prepared as 111× stocks in 100% DMSO. Kds were determined using an 11-point 3-fold compound dilution series with three DMSO control points. […] The kinase concentration in the eluates was measured by qPCR. Binding constants (Kds) were calculated with a standard dose-response curve using the Hill equation. […]

[2] = molecular target: recombinant human ASK1 protein (Homo sapiens (Human), UniProt Q99683); assay: ASK1 kinase activity inhibition assay (radiometric 33P incorporation into MBP); format: biochemical; conditions: 20 μM MBP, 10 μM 33P-ATP
Chain of recombinant human ASK1 protein (Q99683 whole entry): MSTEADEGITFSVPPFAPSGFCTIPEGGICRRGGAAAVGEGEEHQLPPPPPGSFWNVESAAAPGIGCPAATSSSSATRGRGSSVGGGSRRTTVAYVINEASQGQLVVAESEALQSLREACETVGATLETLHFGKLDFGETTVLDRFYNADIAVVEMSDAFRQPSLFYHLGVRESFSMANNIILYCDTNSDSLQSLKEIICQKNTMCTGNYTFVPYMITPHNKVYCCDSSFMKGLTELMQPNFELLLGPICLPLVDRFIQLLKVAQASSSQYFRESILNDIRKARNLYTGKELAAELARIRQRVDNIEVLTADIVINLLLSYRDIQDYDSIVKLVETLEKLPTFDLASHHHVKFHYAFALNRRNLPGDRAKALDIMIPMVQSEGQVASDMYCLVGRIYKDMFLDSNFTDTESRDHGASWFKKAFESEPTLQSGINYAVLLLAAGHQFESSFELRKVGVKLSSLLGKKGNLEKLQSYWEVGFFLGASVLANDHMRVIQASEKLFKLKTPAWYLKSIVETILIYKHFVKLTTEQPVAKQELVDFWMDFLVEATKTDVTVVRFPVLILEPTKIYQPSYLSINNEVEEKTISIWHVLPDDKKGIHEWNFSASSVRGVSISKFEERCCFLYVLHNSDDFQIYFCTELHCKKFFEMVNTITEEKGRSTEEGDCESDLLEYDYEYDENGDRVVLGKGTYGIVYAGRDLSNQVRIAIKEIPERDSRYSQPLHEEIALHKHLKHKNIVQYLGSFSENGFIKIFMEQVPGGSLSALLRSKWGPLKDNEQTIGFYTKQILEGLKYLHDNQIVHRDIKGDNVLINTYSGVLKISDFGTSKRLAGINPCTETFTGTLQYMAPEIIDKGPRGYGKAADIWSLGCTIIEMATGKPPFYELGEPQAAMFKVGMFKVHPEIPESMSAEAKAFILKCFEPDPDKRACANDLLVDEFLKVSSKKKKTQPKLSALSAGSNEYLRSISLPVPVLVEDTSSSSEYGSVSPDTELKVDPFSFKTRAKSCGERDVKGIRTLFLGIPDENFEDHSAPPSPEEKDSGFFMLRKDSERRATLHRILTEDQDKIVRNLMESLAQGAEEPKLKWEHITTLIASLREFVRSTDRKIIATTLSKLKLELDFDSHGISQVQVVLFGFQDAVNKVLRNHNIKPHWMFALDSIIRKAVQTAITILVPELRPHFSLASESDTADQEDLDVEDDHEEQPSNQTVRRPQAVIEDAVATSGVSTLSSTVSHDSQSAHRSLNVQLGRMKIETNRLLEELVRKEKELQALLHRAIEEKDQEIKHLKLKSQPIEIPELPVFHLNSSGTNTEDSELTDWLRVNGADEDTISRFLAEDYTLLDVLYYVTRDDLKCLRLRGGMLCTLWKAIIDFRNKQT
How it was run: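 Compound (1% DMSO final) was preincubated for 20 min at room temperature with recombinant human ASK1 and 20 μM MBP in HEPES pH 7.5 buffer. Reactions started with 10 μM 33P-ATP and ran for 2 h at room temperature. 33P incorporation into MBP was measured by P81 filter binding.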

[3] = molecular target: human OATP1B1 transporter (Homo sapiens (Human), UniProt Q9Y6L6); assay: Transporter mediated cellular uptake, OATP1B1-expressing HEK293; format: in vitro ADME; conditions: HEK293 stably expressing human OATP1B1, 37° C., 0.5 minutes
Chain of human OATP1B1 transporter (Q9Y6L6 whole entry): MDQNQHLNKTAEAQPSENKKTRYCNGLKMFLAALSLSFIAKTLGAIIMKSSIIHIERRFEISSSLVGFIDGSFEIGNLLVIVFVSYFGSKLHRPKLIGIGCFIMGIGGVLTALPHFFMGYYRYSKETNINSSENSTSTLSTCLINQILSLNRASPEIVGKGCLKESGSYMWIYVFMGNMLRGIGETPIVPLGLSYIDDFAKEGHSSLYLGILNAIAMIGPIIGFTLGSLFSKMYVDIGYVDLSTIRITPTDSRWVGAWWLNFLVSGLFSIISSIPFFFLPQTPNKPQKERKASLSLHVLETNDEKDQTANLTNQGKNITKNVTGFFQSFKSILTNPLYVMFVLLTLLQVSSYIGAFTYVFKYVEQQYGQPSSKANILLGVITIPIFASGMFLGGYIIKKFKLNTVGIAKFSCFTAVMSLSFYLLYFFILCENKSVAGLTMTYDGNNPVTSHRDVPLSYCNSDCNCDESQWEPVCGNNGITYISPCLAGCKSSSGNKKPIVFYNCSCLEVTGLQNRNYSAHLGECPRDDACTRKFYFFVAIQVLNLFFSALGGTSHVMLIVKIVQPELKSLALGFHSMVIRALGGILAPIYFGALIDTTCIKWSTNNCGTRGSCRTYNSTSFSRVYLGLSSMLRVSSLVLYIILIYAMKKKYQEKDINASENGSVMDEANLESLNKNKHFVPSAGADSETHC
Description: (§1) Transporter Mediated Cellular Uptake
(§2) To determine transporter mediated cellular uptake of compounds, HEK293 stably expressing either human OATP1B1 or human OATP1B3 transporter, or mock transfected cells were cultured at 37° C. in an atmosphere of 95:5 air:CO2 DMEM/F12 medium containing 10% FBS, 100 unit/mL penicillin-G and 100 μg/mL streptomycin. Transporter expressing cell culture medium also contained 500 μg/mL G418 disulfate solution. Cells were plated onto 24-well poly-D-lysine coated culture plates at the density 5×10^5 cells/well 24 hours prior to uptake assay. Compound stock solutions were made at 1000× final concentration in 100% DMSO. Final compound solutions were prepared by diluting stock solutions into HBSS buffer (pH 7.4) On the day of the uptake assay cell culture media was removed and cells were washed twice with 300 μL of HBSS buffer (pH 7.4). Cellular uptake of compound into the cells was measured by adding 300 μL of final compound solutions in HBSS and incubating them at 37° C. for 0.5 minutes (OATP1B1) or 5 minutes (OATP1B3). Reactions were quenched by removing the buffer containing the TA and the cells were washed twice with 300 μL of HBSS buffer. Cells were lysed by adding 300 μL of MeOH:H2O (2:1) and incubated for 20 minutes at 4° C. The amount of compound in the cell lysate was determined by LC-MS/MS. The amount of protein in each well was quantified using the BCA kit for protein determination and used to normalize compound uptake (Sigma-Aldrich, St Louis, Mo., USA). • Uptake of the probe substrate in control cells provided background activity values for all data points. • Incubation with probe substrate (solvent only) provided 100% activity values. • A reference positive control was used for each transporter

[4] = molecular target: human OATP1B3 transporter (Homo sapiens (Human), UniProt Q9NPD5); assay: Transporter mediated cellular uptake, OATP1B3-expressing HEK293; format: in vitro ADME; conditions: HEK293 stably expressing human OATP1B3, 37° C., 5 minutes
Chain of human OATP1B3 transporter (Q9NPD5 whole entry): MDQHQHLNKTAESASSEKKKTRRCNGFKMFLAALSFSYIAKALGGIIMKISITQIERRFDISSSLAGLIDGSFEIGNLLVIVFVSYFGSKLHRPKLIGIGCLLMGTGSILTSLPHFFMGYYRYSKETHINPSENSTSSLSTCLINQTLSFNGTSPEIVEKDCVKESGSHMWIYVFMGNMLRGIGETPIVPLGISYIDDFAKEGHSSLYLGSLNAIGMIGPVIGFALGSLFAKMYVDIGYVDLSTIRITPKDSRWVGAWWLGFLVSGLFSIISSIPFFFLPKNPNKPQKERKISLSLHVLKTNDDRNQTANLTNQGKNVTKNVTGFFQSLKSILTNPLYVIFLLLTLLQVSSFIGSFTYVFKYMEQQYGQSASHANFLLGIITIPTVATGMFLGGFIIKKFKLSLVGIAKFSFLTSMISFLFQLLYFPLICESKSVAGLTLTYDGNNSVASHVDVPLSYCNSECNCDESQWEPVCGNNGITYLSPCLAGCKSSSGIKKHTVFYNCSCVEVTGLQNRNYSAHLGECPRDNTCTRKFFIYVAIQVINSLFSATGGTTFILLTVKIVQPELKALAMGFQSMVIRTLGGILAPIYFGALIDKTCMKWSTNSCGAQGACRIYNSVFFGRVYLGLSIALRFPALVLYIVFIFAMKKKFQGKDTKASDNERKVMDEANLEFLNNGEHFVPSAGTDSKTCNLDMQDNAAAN
Description: as §1, §2

Chain of ASK1 kinase active site (Q99683 whole entry): as the sequence (Q99683 whole entry) above

Kd [1]	IC50 ([2]; Table 2)	OATP1B1 Uptake (Percent of no transporter control cell) [3]	OATP1B3 Uptake (Percent of no transporter control cell) [4]	IC50 ([2]; Table 3)	Compound
0.86 nM	3.3 nM	175%	316%	–	CC(C)n1cnnc1-c1cccc(N2Cc3ccc(-c4ccc(C(C)(C)C(=O)O)cc4)cc3C2=O)n1 [Compound 39, 2-(4-(2-(6-(4-isopropyl-4H-1,2,4-triazol-3-yl)pyridin-2-yl)-3-oxoisoindolin-5-yl)phenyl)-2-methylpropanoic acid]
0.75 nM	5.2 nM	753%	399%	5.2 nM	CC(C)n1cnnc1-c1cccc(N2Cc3ccc(-c4cccc(C(=O)O)c4)cc3C2=O)n1 [Compound 1, 3-(2-(6-(4-isopropyl-4H-1,2,4-triazol-3-yl)pyridin-2-yl)-3-oxoisoindolin-5-yl)benzoic acid]
–	–	221%	632%	0.7 nM	CC(C)n1cnnc1-c1cccc(N2Cc3ccc(-c4cccc(C(C)(C)C(=O)O)c4)cc3C2=O)n1 [Compound 102, 2-(3-(2-(6-(4-Isopropyl-4H-1,2,4-triazol-3-yl)pyridin-2-yl)-3-oxoisoindolin-5-yl)phenyl)-2-methylpropanoic Acid]
